From patent US7247650B2, “Macrolides and methods for producing same” (Wyeth, priority 2004, dated 2007)

Key:
Assay type in all cases: cell-based, rat
[1] = system: cultured dopaminergic neurons; test: High-affinity 3H-dopamine uptake after MPP+ induced toxicity
Experimental: Mesencephalic dopaminergic neuron cultures were prepared as previously described in Pong et al., J Neurochem. 69: 986–994 (1997). Embryonic day 15 (E15) rat fetuses were collected and dissected in ice-cold phosphate-buffered saline (PBS). The ventral piece of tissue compromising the mesencephalic dopaminergic region was dissected out. Dissected pieces of tissue were pooled together and transferred to an enzymatic dissociation medium containing 20 IU/ml papain in Earle's balanced salt solution (Worthington Biochemical, Freehold, N.J., U.S.A.) and incubated for 60 minutes at 37° C. After enzymatic dissociation, the papain solution was aspirated and the tissue mechanically triturated with a fire-polished glass Pasteur pipette in complete medium [equal volumes of minimum essential medium (MEM) and F-12 nutrient mixture (Gibco BRL) supplemented with 0.1 mg/ml apotransferrin and 2.5 μg/ml insulin] containing 2,000 IU/ml DNase and 10 mg/ml ovomucoid protease inhibitor.
For dopamine uptake experiments, single-cell suspensions in complete media were seeded on poly-L-ornithine and laminin coated 24-well plates. The cultures were maintained for seven days prior to experimentation. Cultures were pretreated with various concentrations of the compound of formula (I) (washed with PBS and diluted with media to concentrations of 1 nM to 1000 nM) for 24 hours, then exposed to 10 μM the neurotoxin 1-methyl-4-phenylpyridinium (MPP^+) for 1 hour to assess the neuroprotective effect of the compound of formula (I) in cell culture. Following the 1 hour incubation, media was exchanged three times and fresh compound was added for an additional 48 hours.
More particularly, after 48 hours growth of mesencephalic dopaminergic neuron cultures following MPP^+ exposure, high-affinity ^3H-dopamine uptake was performed using a modified method described by Prochiantz et al., Nature 293: 570–572 (1981). Cultures were washed with pre-warmed phosphate-buffered saline (PBS) containing 5.6 mM glucose and 1 mM ascorbic acid. Cultures were then incubated for 15 minutes at 37° C. with 50 nM ^3H-dopamine (31 Ci/mmol, Du Pont-NEN, Wilmington, Del., U.S.A.). The cultures were washed twice with buffer and lysed with 0.5 N NaOH. The lysate was transferred to a scintillation vial containing Ultima Gold scintillation cocktail and radioactivity was determined with a liquid scintillation counter. Alternatively, culture lysates can be washed twice with buffer, incubated for 2 hours at room temperature with Optiphase Supermix scintillation cocktail (Wallac Scintillation Products, Gaithersburg, Md., USA), and radioactivity measured with a liquid scintillation counter.

[2] = system: cultured cortical neurons; test: Neurofilament content in cultured cortical neurons
Experimental: Dissociated cortical neuron cultures were prepared as previously described [Pong et al., Exp Neurol. 2001 September; 171(1):84–97 (2001)]. Briefly, embryonic day 15 rat fetuses were collected and dissected in ice-cold PBS. Dissected cortices were pooled together and transferred to an enzymatic dissociation medium containing papain. After 30 min, the tissue was mechanically triturated with a fire-polished glass Pasteur pipette. Single-cell suspensions in complete media were seeded on poly-L-ornithine and laminin coated 96-well plates. 24 hours later, cultures were treated with various concentrations of compound of formula (I) for 72 hours. The cultures were then fixed and stained with a neurofilament primary antibody and a peroxidase-tagged secondary antibody. A peroxidase substrate (K-Blue Max) was added and the colorimetric change was measure on a colorimetric plate reader.

[3] = system: cultured cortical neurons; test: Neurite outgrowth (total neurite length per cell) in cultured cortical neurons; set-up: unit of the concentration uncertain; conditions: 72 hours
Experimental: Dissociated cortical neuron cultures were prepared as previously described (Pong et al., cited above, 2001). Briefly, embryonic day 15 rat fetuses were collected and dissected in ice-cold PBS. Dissected cortices were pooled together and transferred to an enzymatic dissociation medium containing papain. After 30 minutes, the tissue was mechanically triturated with a fire-polished glass Pasteur pipette. Single-cell suspensions in complete media were seeded on poly-L-ornithine and laminin coated 96-well plates. After 24 hours, cultures were treated with various concentrations of the compound of formula I for 72 hours. The cultures were then fixed and stained with an anti-tubulin primary antibody (TUJ-1) and a fluorescent-tagged secondary antibody. Neurite outgrowth was determined by using the Enhanced Neurite Outgrowth (ENO) algorithm with the Cellomics ArrayScan and expressed as total neurite length per cell.

[4] = system: cultured dorsal root ganglia; test: Neurite outgrowth (total neurite length per cell) in cultured dorsal root ganglia; set-up: unit of the concentration uncertain; conditions: 72 hours
Experimental: Dissociated dorsal root ganglia cultures were prepared as previously described [A. Wood et al., “Stimulation of neurite outgrowth by immunophilin ligands: quantitative analysis by Cellomics Array scan” Society for Neuroscience (2004), abstract 104.3] Briefly, postnatal day 3–5 rat pups were euthanized. The spinal columns were removed and individual dorsal root ganglia (DRG) were dissected out. Dissected DRG were pooled together and transferred to an enzymatic dissociation medium containing papain. After 60 minutes, the tissue was mechanically triturated with a fire-polished glass Pasteur pipette. Single-cell suspensions in complete media were seeded on poly-L-ornithine and laminin coated 96-well plates. After 24 hours, cultures were treated with various concentrations of the compound of formula I for 72 hours. The cultures were then fixed and stained with an anti-tubulin primary antibody (TUJ-1) and a fluorescent-tagged secondary antibody. Neurite outgrowth was determined by using the Enhanced Neurite Outgrowth (ENO) algorithm with the Cellomics ArrayScan and expressed as total neurite length per cell.

## C[n+]1ccc(-c2ccccc2)cc1 [MPP^+, 1-methyl-4-phenylpyridinium, reference compound]
[1]; 10 μM MPP+ for 1 hour, no test compound
  3H-DOPAMINE UPTAKE (% UNTREATED CONTROL): 40% UNTREATED CONTROL

## CC/C1=C\CC(/C(C)=C/C(C)C(C)O)OC(=O)C2CCCN2C(=O)C(=O)C2(O)OC(CCC2C)CC(O)C(C)C(O)CC(O)CC(O)/C(C)=C/C(C)CC(C)C1O (stereo not shown) [Compound (I), prolylmeridamycin]
[2]; 10 nM, 72 hours
  NEUROFILAMENT CONTENT (FOLD-INCREASE ABOVE UNTREATED CONTROL): 1.54 FOLD-INCREASE ABOVE UNTREATED CONTROL
[2]; 100 nM, 72 hours
  NEUROFILAMENT CONTENT (FOLD-INCREASE ABOVE UNTREATED CONTROL): 2.22 FOLD-INCREASE ABOVE UNTREATED CONTROL
[2]; 1 μM, 72 hours
  NEUROFILAMENT CONTENT (FOLD-INCREASE ABOVE UNTREATED CONTROL): 2.34 FOLD-INCREASE ABOVE UNTREATED CONTROL
[2]; 10 μM, 72 hours
  NEUROFILAMENT CONTENT (FOLD-INCREASE ABOVE UNTREATED CONTROL): 2.26 FOLD-INCREASE ABOVE UNTREATED CONTROL
[2]; Rattus norvegicus, Cortical neurone, 72 hours, neurofilament content, read-out: EC50, increased neuronal survival in cultured cortical neurons
  EC50: 21 nM
[2]; similar study with meridamycin
  potency compared with meridamycin: more potent
[1]; 1 nM compound, 24 h pretreatment, 10 μM MPP+ 1 hour, 48 h after
  3H-DOPAMINE UPTAKE (% UNTREATED CONTROL): 45% UNTREATED CONTROL
[1]; 10 nM compound, 24 h pretreatment, 10 μM MPP+ 1 hour, 48 h after
  3H-DOPAMINE UPTAKE (% UNTREATED CONTROL): 52% UNTREATED CONTROL
[1]; 100 nM compound, 24 h pretreatment, 10 μM MPP+ 1 hour, 48 h after
  3H-DOPAMINE UPTAKE (% UNTREATED CONTROL): 61% UNTREATED CONTROL
[1]; 1000 nM compound, 24 h pretreatment, 10 μM MPP+ 1 hour, 48 h after
  3H-DOPAMINE UPTAKE (% UNTREATED CONTROL): 72% UNTREATED CONTROL
[1]; Rattus norvegicus, Neuron, relative to maximum protection (84% uptake) afforded by 10 ng/mL GDNF, read-out: EC50, neuroprotection against MPP+-induced neurotoxicity
  EC50: 110 nM
[1]; similar study with meridamycin
  potency compared with meridamycin: more potent
[3]; 10 nM
  Total Neurite Length (% Above Control): 30% Above Control
[3]; 100 nM
  Total Neurite Length (% Above Control): 51% Above Control
[3]; 1 (unit uncertain)
  Total Neurite Length (% Above Control): 120% Above Control
[3]; 10 (unit uncertain)
  Total Neurite Length (% Above Control): 178% Above Control
[4]; 10 nM
  Total Neurite Length (% Above Control): 2% Above Control
[4]; 100 nM
  Total Neurite Length (% Above Control): 7% Above Control
[4]; 1 (unit uncertain)
  Total Neurite Length (% Above Control): 21% Above Control
[4]; 10 (unit uncertain)
  Total Neurite Length (% Above Control): 44% Above Control

B1: glial cell line-derived neurotrophic factor (protein, UniProt P39905 78-211, looked up)
Glial cell line-derived …: SPDKQMAVLPRRERNRQAAAANPENSRGKGRRGQRGKNRGCVLTAIHLNVTDLGLGYETKEELIFRYCSGSCDAAETTYDKILKNLSRNRRLVSDKVGQACCRPIAFDDDLSFLDDNLVYHILRKHSAKRCGCI
notes: glial cell line-derived neurotrophic factor, gives maximum protection in the dopamine uptake assay
[1]; 10 ng/mL GDNF, MPP+-induced neurotoxicity
  maximum protection (% uptake): 84 % uptake
